Laboratory results published in PMC12062019, “Therapeutic effects of medicinal and food-based traditional herbal couples on type 2 diabetes mellitus based on pharmacodynamics and pharmacokinetics” (Frontiers in Pharmacology, 2025).

Legend:
gut flora of rats = assay: 16s rDNA sequencing of gut flora of rats; assay type: in vivo, rat; settings: T2DM rats
T2DM rats = assay: Blood glucose and body weight in high-fat diet/STZ-induced T2DM rat model; assay type: in vivo; settings: gavage once daily, weight first decreased then increased
Method: The T2DM rat model was developed by intraperitoneal injection of streptozotocin (STZ). 60 male SD rats were acclimatised and reared for 1 week, then blood glucose and body weight were measured, and the rats were randomly divided into 10 in the normal group and 50 in the modelling group according to blood glucose and body weight. The T2DM rat was fed with high-fat chow for 4 weeks, and at the end of the 4 weeks, the rats were fasted for 12 h without food or water, and were injected with a one-time intraperitoneal injection of 35 mg/kg of 1% STZ solution. The normal group was fed with normal chow, and was given free access to drinking water, and was injected intraperitoneally with the same dose of citrate-sodium citrate buffer as that of the T2DM rat. The blood was collected from the tail vein for fasting blood glucose (FBG) measurement after 72 h. FBG of 16.7 mmol/L was considered successful in T2DM model replication. The T2DM rat model was successfully replicated.
For better drug delivery, we used a rotary evaporator to concentrate the CR-PLR decoction, CR decoction and PLR decotion to crude drug (1 g/mL), respectively. […]

HT29 cells = assay: CCK-8 cell viability, HT29; settings: HT29, 24 h, concentrations up to 65 μg/mL
Method: (§1) HT29 cells were grown in McCoy’s 5A medium containing 10% fetal bovine serum, 1% non-essential amino acids, and 1% penicillin-streptomycin, and other conditions were the same as those for Caco-2 cells culture, with the medium being changed every other day. […] They were incubated at 37°C for 24 h to allow cell adhesion. […] After this, the medium was removed and the cells were co-incubated with 10 μL of CCK-8 solution for 4 h. The absorbance values (OD) were measured at 450 nm using a SpectraMax 190 Enzyme Marker. The blank group consisted of wells that were not inoculated with cells, and the control group included wells containing cells but not exposed to the sample solution. Each group was performed in six replicates. Cell viability was calculated using the following formula: Cell activity%=Experimental Group OD value−Blank Group OD value/Control Group OD value−Blank Group OD value×100%

[1] = parameters: method as in Wang et al., 2020; settings: poor lipid and water solubility; ref Wang et al., 2020; cited from earlier work
Caco-2 cells = assay: CCK-8 cell viability, Caco-2; settings: Caco-2, 24 h, concentrations up to 65 μg/mL
Method: as §1

[2] = Genus level, compared to the model group

Row | Structure (SMILES) | percentage of Lachnospiraceae flora (gut flora of rats; Family level) | percentage of Lactobacillaceae flora (gut flora of rats; Family level) | percentage of Ruminococcaceae flora (gut flora of rats; Family level) | percentage of Ligilactobacillus flora (gut flora of rats; Genus level) | percentage of lactobacilli flora (gut flora of rats; Genus level) | percentage of Akkermansia flora (gut flora of rats; [2]) | percentage of Ruminococcus flora (gut flora of rats; [2]) | number of independent OTUs (gut flora of rats; gut flora, Venn plot) | weeks of administration after which body weight increased (T2DM rats) | relative cell viability (HT29 cells) | BCS classification system class [1] | relative cell viability (Caco-2 cells)
1 | CN(C)C(=N)N=C(N)N [metformin] | 8.91% | 8.88% | 9.47% | 3.69% | 4.68% | increased | increased | 2051 | 4 weeks | – | – | –
2 | O=c1c(-c2ccc(O)cc2)coc2c([C@@H]3O[C@H](CO)[C@@H](O)[C@H](O)[C@H]3O)c(O)ccc12 [PUR, Puerarin] | – | – | – | – | – | – | – | – | – | above 90% | class IV | above 90%
